Test results reported in PubChem BioAssay AID330 (DTP/NCI, 2004).
“And” between values parts separate entries of the source, which are not always exact repeats. Identical values can stand only once. Inconclusive results and toxic doses are left out. Rule for the calls: active = survival T/C of 150% or more; inactive = T/C below 125% in these data. Peptide text beside a SMILES is read from it. * marks the point of attachment. Cbz = O=C(OCc1ccccc1)*; Bn = c1ccc(C*)cc1; NHNH2 = NN*

System: P388 leukemia ip, CD2F1 mice, survival T/C
Experiment: NCI In Vivo Anticancer Drug Screen. Data for tumor model P388 Leukemia (intraperitoneal) in CD2F1 (CDF1) mice
Details: endpoint: median survival time, higher = longer survival
Outline: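 Mice carrying the transplanted tumor received test compound or vehicle. Survival was recorded in each group, and the value is the treated-group measurement divided by that of the vehicle-treated control group.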

[1] = dose: 50.0 mg/kg/injection, schedule: Q01DX005 (ip), vehicle: Klucel (hydroxypropylcellulose) (HPC)
[2] = dose: 100.0 mg/kg/injection, schedule: Q01DX005 (ip), vehicle: Klucel (hydroxypropylcellulose) (HPC)
[3] = dose: 200.0 mg/kg/injection, schedule: Q01DX005 (ip), vehicle: Klucel (hydroxypropylcellulose) (HPC)
[4] = dose: 50.0 mg/kg/injection, schedule: Q01DX009 (ip), vehicle: saline with Tween-80
[5] = dose: 100.0 mg/kg/injection, schedule: Q01DX009 (ip), vehicle: saline with Tween-80
[6] = dose: 200.0 mg/kg/injection, schedule: Q01DX009 (ip), vehicle: saline with Tween-80
[7] = dose: 6.25 mg/kg/injection, schedule: Q01DX009 (ip), vehicle: saline
[8] = dose: 12.5 mg/kg/injection, schedule: Q01DX009 (ip), vehicle: saline
[9] = dose: 12.5 mg/kg/injection, schedule: Q01DX009 (ip), vehicle: distilled water + Tween-80
[10] = dose: 25.0 mg/kg/injection, schedule: Q01DX009 (ip), vehicle: distilled water + Tween-80
[11] = dose: 50.0 mg/kg/injection, schedule: Q01DX009 (ip), vehicle: distilled water + Tween-80
[12] = dose: 50.0 mg/kg/injection, schedule: Q01DX009 (ip), vehicle: Klucel (hydroxypropylcellulose) (HPC)
[13] = dose: 100.0 mg/kg/injection, schedule: Q01DX009 (ip), vehicle: Klucel (hydroxypropylcellulose) (HPC)

Measured: T/C

O=C(O)CCS/N=N/c1nc2nc[nH]c(=O)c2[nH]1
inactive: [1] 107 % of control | [2] 103 % of control | [3] 104 % of control

CC(=O)Oc1ccccc1C(=O)O
inactive: dose: 31.3 mg/kg/injection, schedule: Q01DX009 (ip), vehicle: saline with Tween-80 90 % of control | [4] 99 % of control | dose: 62.5 mg/kg/injection, schedule: Q01DX009 (ip), vehicle: saline with Tween-80 100 % of control | [5] 107 % of control | dose: 125.0 mg/kg/injection, schedule: Q01DX009 (ip), vehicle: saline with Tween-80 104 % of control | [6] 95 % of control

CSC(=S)N/N=C\C(C)=N/N=C(N)N
inactive: dose: 3.12 mg/kg/injection, schedule: Q01DX009 (ip), vehicle: saline 101 % of control | [7] 101 % of control | [8] 107 % of control

C=C1COC(=O)C12CC1CCCC(C)C1(C)C2 (stereo not drawn)
inactive: dose: 4.0 mg/kg/injection, schedule: Q01DX009 (ip), vehicle: Klucel (hydroxypropylcellulose) (HPC) 93 % of control | dose: 8.0 mg/kg/injection, schedule: Q01DX009 (ip), vehicle: Klucel (hydroxypropylcellulose) (HPC) 96 % of control | dose: 16.0 mg/kg/injection, schedule: Q01DX009 (ip), vehicle: Klucel (hydroxypropylcellulose) (HPC) 94 % of control | dose: 32.0 mg/kg/injection, schedule: Q01DX009 (ip), vehicle: Klucel (hydroxypropylcellulose) (HPC) 102 % of control

CCOC(=O)CSc1ccccc1
inactive: dose: 50.0 mg/kg/injection, schedule: Q01DX009 (ip), vehicle: saline 100 % of control | dose: 100.0 mg/kg/injection, schedule: Q01DX009 (ip), vehicle: saline 98 % of control | dose: 200.0 mg/kg/injection, schedule: Q01DX009 (ip), vehicle: saline 100 % of control | dose: 400.0 mg/kg/injection, schedule: Q01DX009 (ip), vehicle: saline 100 % of control

CC1OC(OC2C(O)C(OCCc3ccc(O)c(O)c3)OC(CO)C2OC(=O)/C=C/c2ccc(O)c(O)c2)C(O)C(O)C1O (stereo not drawn)
inactive: dose: 4.75 mg/kg/injection, schedule: Q01DX005 (ip), vehicle: Klucel (hydroxypropylcellulose) (HPC) 106 % of control | dose: 9.5 mg/kg/injection, schedule: Q01DX005 (ip), vehicle: Klucel (hydroxypropylcellulose) (HPC) 100 % of control | dose: 19.0 mg/kg/injection, schedule: Q01DX005 (ip), vehicle: Klucel (hydroxypropylcellulose) (HPC) 100 % of control | dose: 38.0 mg/kg/injection, schedule: Q01DX005 (ip), vehicle: Klucel (hydroxypropylcellulose) (HPC) 100 % of control

CCOC(=O)c1ccc(NN=NCCOC)cc1
inactive: [9] 102 % of control | [10] 101 % of control and 105 % of control | [11] 122 % of control and 123 % of control

CC1=NNC(=O)CC1C(O)c1ccc(F)cc1 (stereo not drawn)
inactive: dose: 60.0 mg/kg/injection, schedule: Q01DX005 (ip), vehicle: saline with Tween-80 100 % of control | dose: 120.0 mg/kg/injection, schedule: Q01DX005 (ip), vehicle: saline with Tween-80 104 % of control | dose: 240.0 mg/kg/injection, schedule: Q01DX005 (ip), vehicle: saline with Tween-80 100 % of control

CCOC(=O)C1C(c2ccc(N(C)C)cc2)c2cc3c(cc2OC1(C)N1CCCC1)OCO3 (stereo not drawn)
inactive: dose: 60.0 mg/kg/injection, schedule: Q01DX005 (ip), vehicle: Klucel (hydroxypropylcellulose) (HPC) 100 % of control | dose: 120.0 mg/kg/injection, schedule: Q01DX005 (ip), vehicle: Klucel (hydroxypropylcellulose) (HPC) 96 % of control | dose: 240.0 mg/kg/injection, schedule: Q01DX005 (ip), vehicle: Klucel (hydroxypropylcellulose) (HPC) 93 % of control

C=C1CC2(CCCCC2C)OC1=O (stereo not drawn)
inactive: dose: 100.0 mg/kg/injection, schedule: Q01DX001 (ip), vehicle: saline 101 % of control | dose: 200.0 mg/kg/injection, schedule: Q01DX001 (ip), vehicle: saline 101 % of control | dose: 400.0 mg/kg/injection, schedule: Q01DX001 (ip), vehicle: saline 100 % of control

CCCC(=O)NNC(=O)c1ccccn1
inactive: dose: 25.0 mg/kg/injection, schedule: Q01DX009 (ip), vehicle: saline sonified 90 % of control | dose: 50.0 mg/kg/injection, schedule: Q01DX009 (ip), vehicle: saline sonified 95 % of control | dose: 100.0 mg/kg/injection, schedule: Q01DX009 (ip), vehicle: saline sonified 100 % of control

NNC(=O)C(Cc1ccc(O)cc1)NC(=O)C(CSCc1ccccc1)NC(=O)OCc1ccccc1 (stereo not drawn) (Cbz-Cys(Bn)-Tyr-NHNH2; configuration not given here)
inactive: [12] 93 % of control | [13] 91 % of control | dose: 200.0 mg/kg/injection, schedule: Q01DX009 (ip), vehicle: Klucel (hydroxypropylcellulose) (HPC) 89 % of control

C/C=C(\C)C(=O)OC1CC(OC(=O)/C(C)=C/C)C2(C)C3C(=O)C=C(C)C2C3C1(C)C (stereo not drawn)
inactive: dose: 12.5 mg/kg/injection, schedule: Q01DX009 (ip), vehicle: Klucel (hydroxypropylcellulose) (HPC) 90 % of control | dose: 25.0 mg/kg/injection, schedule: Q01DX009 (ip), vehicle: Klucel (hydroxypropylcellulose) (HPC) 96 % of control | [12] 96 % of control | [13] 100 % of control

CN(C)c1ccc(C=Nc2ccc3c4c(cccc24)-c2ccccc2-3)cc1
inactive: [4] 93 % of control | [5] 86 % of control | [6] 89 % of control

COc1ccc(/C=C2/N=C(c3ccc(Cl)c(Cl)c3)OC2=O)cc1OC
inactive: [1] 90 % of control | [2] 88 % of control | [3] 94 % of control

Cc1ccc(C(SCC(N)C(=O)O)(c2ccccc2)c2ccc(C)cc2)cc1 (stereo not drawn)
active: dose: 50.0 mg/kg/injection, schedule: Q04DX003 (ip), vehicle: saline with Tween-80 186 % of control | dose: 100.0 mg/kg/injection, schedule: Q04DX003 (ip), vehicle: saline with Tween-80 200 % of control | dose: 132.0 mg/kg/injection, schedule: Q04DX003 (ip), vehicle: saline with Tween-80 172 % of control | dose: 200.0 mg/kg/injection, schedule: Q04DX003 (ip), vehicle: saline with Tween-80 177 % of control and 200 % of control | dose: 300.0 mg/kg/injection, schedule: Q04DX003 (ip), vehicle: saline with Tween-80 263 % of control

CC1(C)N=C(N)N=C(N)N1c1cccc(CCCCOc2ccccc2)c1
inactive: dose: 6.25 mg/kg/injection, schedule: Q04DX003 (ip), vehicle: saline with Tween-80 113 % of control | dose: 12.5 mg/kg/injection, schedule: Q04DX003 (ip), vehicle: saline with Tween-80 109 % of control | dose: 18.0 mg/kg/injection, schedule: Q01DX009 (ip), vehicle: saline with Tween-80 95 % of control
active: dose: 3.13 mg/kg/injection, schedule: Q01DX009 (ip), vehicle: saline with Tween-80 150 % of control | dose: 6.25 mg/kg/injection, schedule: Q01DX009 (ip), vehicle: saline with Tween-80 150 % of control | dose: 12.5 mg/kg/injection, schedule: Q01DX009 (ip), vehicle: saline with Tween-80 154 % of control

CNS(=O)(=O)c1ccc(Cl)cc1
inactive: dose: 3.13 mg/kg/injection, schedule: Q01DX009 (ip), vehicle: saline 94 % of control | [7] 99 % of control | [8] 98 % of control | dose: 25.0 mg/kg/injection, schedule: Q01DX009 (ip), vehicle: saline 98 % of control

COc1cc(CBr)ccc1OCc1ccccc1
inactive: [9] 111 % of control | [10] 101 % of control | [11] 108 % of control | dose: 100.0 mg/kg/injection, schedule: Q01DX009 (ip), vehicle: distilled water + Tween-80 108 % of control

CCCC1C2C=CC(C(S(=O)(=O)c3ccccc3)C2)N1C(=O)OCC (stereo not drawn)
inactive: dose: 25.0 mg/kg/injection, schedule: Q01DX005 (ip), vehicle: saline with Tween-80 100 % of control | dose: 50.0 mg/kg/injection, schedule: Q01DX005 (ip), vehicle: saline with Tween-80 103 % of control | dose: 100.0 mg/kg/injection, schedule: Q01DX005 (ip), vehicle: saline with Tween-80 102 % of control | dose: 200.0 mg/kg/injection, schedule: Q01DX005 (ip), vehicle: saline with Tween-80 102 % of control

COc1ccc(C(=O)O[C@@H]2CCN3CC[C@H](C)[C@H]23)cc1
inactive: dose: 12.5 mg/kg/injection, schedule: Q01DX005 (ip), vehicle: Klucel (hydroxypropylcellulose) (HPC) 102 % of control | dose: 25.0 mg/kg/injection, schedule: Q01DX005 (ip), vehicle: Klucel (hydroxypropylcellulose) (HPC) 102 % of control | [1] 104 % of control
